Data on one molecule can be found in patent publication US9272056B2, “Method to produce hyperpolarised carboxylates” (GE Healthcare AS, priority 2005, dated 2016).

The nature of this data set: T1 relaxation in human full blood. It counts as physicochemical. Particulars: human full blood at 37° C. From the text: The amount of alanine, bicarbonate and lactate is dependent on the metabolic status of the tissue under investigation.

On to `CC(=O)[13C](=O)O` [^13C-pyruvate], for which the T1 relaxation result was “about 42 s”.
